Common to all, as to type: cell-based, human
In one assay the test system is hPR-A and hPR-B. In words: MMTV-Luc reporter gene transactivation in HBE cells transfected with hPR-A and/or hPR-B.
For assay [1], the system named is MCF-7 cells. In words: Tritiated thymidine incorporation (proliferation) in MCF-7 cells. To be noted: 48 h. How it is done: (§1) After seeding, cells were cultured for 24 h in serum and phenol red free medium. Then treatments were carried out in a phenol red free medium containing 5% dextran-charcoal stripped serum. Cells were treated with P or DEX (100 nM), alone or in combination with UPA, RU (1 nM to 1 μM) or CDB-3877 (100 nM). Control cells were treated with ethanol, at […] 1:1000 final ethanol concentration alone as vehicle or E2 (10 nM).
After 24 h of hormonal treatment, cells were incubated with [methyl-1 3H] thymidine (Perkin Elmer, Courtaboeuf, France) for 48 h or 20 h for KBE or cancer cells, respectively at 37° C. After incubation cells were washed twice with PBS 1× and once with 5% trichloroacetic acid (TCA). Cells were incubated in 5% TCA for 15 min at 4° C. and lysed in NaOH 0.1 N for 30 min at 37° C. The total cell lysate was added to 5 ml of Ecolite scintillation liquid (MP biomedical, Illkirch, France) and radioactivity was counted with a β-counter HIDEX 300SL (ScienceTec, Courtaboeuf, France).

Assay [2] concerns MCF-7 cells. In words: Apoptosis, sub-G1 quantification by flow cytometry in MCF-7 cells. Particulars: 48 h. As to the method:
as §1
After 96 h or 48 h of hormonal treatment, respectively, for HBE or MCF-7 and T-47D cells, cells were washed in PBS, matrix dissociated with accutase enzyme (PAA laboratory, Les Mureaux, France), and centrifuged 5 minutes at 1350 rpm. Cells were fixed and frozen at −20° C. in 70% ethanol. Before analysis, cells were washed in PBS and stained with 10 μg/ml propidium iodide in PBS (containing 0.835 U/ml RNase A) (Sigma, St Quentin Fallavier, France). For each sample at least 10 000 cells were counted in a BD LSR II flow cytometer (BD Biosciences, Le Pont de Claix, France). After gating out doublets and debris, cycle distribution was analyzed using the ModFit LT software (Verity Software House, USA).

Results on 1 molecule are retold here after patent publication US9814732B2, “Ulipristal acetate for prevention and treatment of breast tumors” (LABORATOIRE HRA-PHARMA, priority 2012, dated 2017).

Procedure for hPR-A and hPR-B: T-47D and MCF-7 cell lines were respectively maintained in RPMI 1640 and in DMEM medium supplemented with 10% fetal calf serum (PAA Laboratory, Les Mureaux, France). […] Normal human breast epithelial cell (HBE) primary cultures were obtained from 20 women (aged 17-50 years). […] HBE cells were maintained in HAM F10 medium (PAA Laboratory, Les Mureaux, France) containing hydrocortisone (5 ng/ml), Triiodo-L-thyronine (6.5 ng/ml), choleratoxin (10 ng/ml), transferrin (5 mg/ml), insulin (0.016 U/ml), epidermal growth factor (10 ng/ml) (Sigma, St Quentin Fallavier, France) and 5% human serum (Etablissement Français du Sang).
After seeding, cells were cultured for 24 h in serum and phenol red free medium. Then treatments were carried out in a phenol red free medium containing 5% dextran-charcoal stripped serum. […] Control cells were treated with ethanol, at 10 1:1000 final ethanol concentration alone as vehicle or E2 (10 nM).
Cells were transfected with reporter gene plasmids containing glucocorticoid and progesterone responsive elements (GRE/PRE): 1) the MMTV-Luc is a Mouse Mammary Tumor Virus Long Terminal Repeat promoter containing one GRE/PRE palindrome and three GRE/PRE hemi-palindromes upstream to firefly luciferase gene in pFC31 vector, 2) the GRELuc contains six copies of GRE/PRE palindrome upstream to firefly luciferase gene in pBL vector. When indicated, HBE cells were transfected with human PR isoforms hPR-A and hPR-B expression plasmids constructed in POP3 vectors. Rous Sarcoma Virus promoter upstream to beta galactosidase gene (pRSV-β-Gal) was transfected in each experiment as control. Transfections were performed according to the manufacturer instructions using Lipofectamine or Lipofectamine LTX Reagents (Invitrogen, Cergy-Pontoise, France) for breast cancer cell lines or HBE cells, respectively. After 24 h of transfection, breast cancer and HBE cells were treated with hormones for 24 h or 48 h, respectively. At the end of the experiment, cells were lysed and luciferase activity was determined using the Luciferase Assay System (Promega, Charbonnières-les-bains, France). Beta galactosidase activity was assessed using the Galacto Star kit (Applied Biosystems, Courtaboeuf, France) to normalize luciferase activity data.

With `CC(=O)O[C@]1(C(C)=O)CCC2C3CCC4=CC(=O)CCC4=C3[C@@H](c3ccc(N(C)C)cc3)C[C@@]21C` (some centres unmarked) [UPA, 17[…]-acetoxy-11[…]-[4-N,N-dimethylamino-phenyl)-19-norpregna-4,9-diene-3,20-dione], the “inhibition of P induced MMTV-Luc transactivation” value in the assay with hPR-A and hPR-B (HBE cells co-transfected with hPR-A and hPR-B, P 100 nM, antagonist 1 to 1000 nM) is recorded as “inhibited P induced MMTV11 Luc transactivation in a dose dependent manner from 1 000 to 10 nM”. Besides, the “antagonist performance between PR isoforms (MMTV-Luc)” value in the assay on hPR-A and hPR-B (HBE cells transfected with only hPR-A or hPR-B) is given as “No difference with increasing the levels of each PR isoform was seen on UPA antagonist performance”. In addition, the “lowest concentration necessary to exert a complete antagonist activity” value in the assay with hPR-A and hPR-B (HBE cells, MMTV-Luc, P 100 nM) is given as “A hundred”. Further, in the assay on hPR-A and hPR-B (HBE cells, compound alone), the “progestational agonist properties on reporter gene transcription” value is reported as “did not exhibit progestational agonist properties”. In addition, the “cell proliferation ([3H] thymidine incorporation), compound alone” value in the assay on MCF-7 cells [1] (100 nM) was “had no effect on proliferation”. In the assay on MCF-7 cells [1] (DEX 100 nM + UPA 100 nM), the “effect of UPA on DEX-mediated proliferation change” value is reported as “tended to prevent the weak anti-proliferative effects of DEX”. The “cell apoptosis (sub-G1 percentage), compound alone” value with MCF-7 cells [2] (100 nM) is recorded as “had no apoptotic or survival properties by itself”. For the same molecule, the “effect of UPA on DEX-mediated apoptosis” value with MCF-7 cells [2] (DEX 100 nM + UPA 100 nM) was “totally inhibited by UPA”.
